Data as given in patent US8470552B2, “Strategy to reduce lactic acid production and control PH in animal cell culture” (Keck Graduate Institute, priority 2009, dated 2013).

Assays:
[1] = system: DG44 CHO (Native Control cells); test: Native control cells grown in various levels of Na-lactate and NaCl (shaker flasks); type: cell-based, Chinese Hamster
Procedure: Unless otherwise noted, the experiments described herein were conducted with a dihydrofolate reductase deficient (DHFR^−) Chinese Hamster Ovary cell line, DG44 CHO (Invitrogen, Carlsbad, Calif.). Prior to experimentation, the cells were transfected with a pOPTI-Vec TOPO plasmid vector containing the gene for a recombinant monoclonal ScFv-Fc1 protein fragment. Transfected cells were grown in selective OptiCHO medium (Invitrogen, Carlsbad, Calif.) and the recombinant gene copy number was further amplified by supplementing the medium with 250 nM methotrexate. The amount of recombinant antibody fragment expressed was less than 10 mg/L and not subsequently measured. This cell line was used to test the feasibility of the novel approach in terms of cell growth, death, and metabolism. Cells were frozen down and hereafter referred to as “Native Control” cells. All subsequent experiments were performed without methotrexate.
Cell concentration and viability was measured by the trypan blue exclusion method using a ViCell analyzer (Beckman Coulter, Fullerton, Calif.). Off-line measurements were taken with a Bioprofile 400 (Nova Biomedical, Waltham, Mass.) for glucose, glutamine, lactate, carbon dioxide, oxygen, ammonium concentration and pH levels. Osmolality was measured by freezing point depression on a Model 3250 Osmometer (Advanced Instruments, Norwood, Mass.)
In the first set of experiments, illustrated in FIGS. 1-6, cultures were grown at 30 ml working volume in 125 ml shaker flasks (Corning, Lowell, Mass.) placed in an incubator at 37° C., 135 rpm, and 8% CO2. Continuous passages were performed every 3 to 4 days in duplicate shaker flasks inoculated at a seeding density of 1.0×10^6 cell/ml. After the cells were adapted to the high lactate concentration, longer-duration batch cultures were performed in triplicate shaker flasks for 12 days starting at a seeding density of 0.3×10^6 cells/ml. A sodium (D/L)-lactate stock solution (Sigma, Lowell, Mass.) was used for lactate supplementation. All reported lactate values are for the physiologically relevant L-Lactate isomer.
Specific rates were determined on a time interval bases by measuring daily viable and total cell density (VCD or TCD) and metabolite concentrations. Specific net growth rate (μN), was calculated as change in VCD over a time interval t1 to t2 using Equation 1: […]
Metabolic flux was calculated as specific nutrient consumption rate or specific metabolite production rate (qp) using Equations 5 and 6, where P is nutrient such as glucose or glutamine or metabolite such as lactic acid or ammonium) concentration:
Native control cells were grown in various levels of Na-lactate and NaCl to evaluate the impact each component had on growth and viability. Media compositions are discussed in Table 1.

[2] = system: Lactate Adapted cells (DG44 CHO); test: Lactate Adapted cells continuously passaged in medium containing 0 to 40 mM lactate; type: cell-based, Chinese Hamster
Procedure: Unless otherwise noted, the experiments described herein were conducted with a dihydrofolate reductase deficient (DHFR^−) Chinese Hamster Ovary cell line, DG44 CHO (Invitrogen, Carlsbad, Calif.). Prior to experimentation, the cells were transfected with a pOPTI-Vec TOPO plasmid vector containing the gene for a recombinant monoclonal ScFv-Fc1 protein fragment. Transfected cells were grown in selective OptiCHO medium (Invitrogen, Carlsbad, Calif.) and the recombinant gene copy number was further amplified by supplementing the medium with 250 nM methotrexate. The amount of recombinant antibody fragment expressed was less than 10 mg/L and not subsequently measured. This cell line was used to test the feasibility of the novel approach in terms of cell growth, death, and metabolism. Cells were frozen down and hereafter referred to as “Native Control” cells. […]
Cell concentration and viability was measured by the trypan blue exclusion method using a ViCell analyzer (Beckman Coulter, Fullerton, Calif.). […] Osmolality was measured by freezing point depression on a Model 3250 Osmometer (Advanced Instruments, Norwood, Mass.) […]
Metabolic flux was calculated as specific nutrient consumption rate or specific metabolite production rate (qp) using Equations 5 and 6, where P is nutrient such as glucose or glutamine or metabolite such as lactic acid or ammonium) concentration: […]

| SMILES | specific lactic acid production ([1]; NaCl supplementation (FIG. 1C)) | lactic acid production ([2]; cultures inoculated between 35 to 40 mM lactate (FIG. 3)) | initial lactate concentration at zero net flux of lactic acid production ([2]; predicted from FIG. 3) | specific lactic acid production ([1]; 27 mM lactate (FIG. 1C)) | specific lactic acid production ([1]; 40 mM lactate (FIG. 1C)) | specific total growth and death rate ([1]; non-adapted cells, Na-lactate compared with NaCl (FIG. 1B)) | viable cell density (VCD) ([1]; non-adapted cells, increasing lactate levels (FIG. 1A)) |
| --- | --- | --- | --- | --- | --- | --- | --- |
| [Cl-].[Na+] [NaCl, sodium chloride, reference compound] | No such effect |  |  |  |  |  |  |
| CC(O)C(=O)[O-].[Na+] (stereo not shown) [Na-lactate, sodium lactate] |  | substantially reduced | above 40 mM | dramatic drop | clear shift from production to consumption | impacted specific total growth and death rate the most | clear reduction |
